ChEMBL document CHEMBL1201862, “PubChem BioAssay data set” (2004)
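The compound was tested at five concentrations on cells cultured in 96-well plates, with a 48-hour exposure period. GI50: concentration for 50% inhibition of growth.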 The source made the active and inactive calls. No stated cut-off is given here; in the data, active = GI50 up to about 1.1 µM and inactive = higher.

Key:
Test in all cases: NCI tumour cell line growth inhibition, 48 h
[1] = system: LOX IMVI
[2] = system: UO-31
[3] = system: UACC-257
[4] = system: SF-539
[5] = system: OVCAR-4
[6] = system: HOP-62
[7] = system: OVCAR-8
[8] = system: HOP-92
[9] = system: DMS-114
[10] = system: HCC 2998
[11] = system: HOP-18
[12] = system: NCI-H226
[13] = system: SNB-78
[14] = system: RXF 631
[15] = system: HL-60
[16] = system: NCI-H460
[17] = system: IGROV-1
[18] = system: OVCAR-3
[19] = system: M19-MEL
[20] = system: UACC-62
[21] = system: SR
[22] = system: M14
[23] = system: KM12
[24] = system: MOLT-4
[25] = system: SNB-75
[26] = system: NCI-H522
[27] = system: SN12C
[28] = system: Malme-3M
[29] = system: SK-MEL-5
[30] = system: KM-20L2
[31] = system: LXFL 529
[32] = system: A498
[33] = system: SF-268
[34] = system: RPMI-8226
[35] = system: DMS-273
[36] = system: TK-10
[37] = system: RXF 393
[38] = system: EKVX
[39] = system: COLO 205
[40] = system: A549
[41] = system: SW-620
[42] = system: CAKI-1
[43] = system: OVCAR-5
[44] = system: SNB-19
[45] = system: DLD-1
[46] = system: U-251
[47] = system: SF-295
[48] = system: SK-OV-3
[49] = system: HT-29
[50] = system: ACHN
[51] = system: SK-MEL-2
[52] = system: SK-MEL-28
[53] = system: K562
[54] = system: CCRF-CEM
[55] = system: NCI-H23
[56] = system: HCT-15
[57] = system: HCT-116
[58] = system: 786-0

Q: `COc1ccc(C(=O)C#Cc2cnc(O)nc2O)cc1` was tested. Which GI50 [1] did it give?
A: The GI50 was 3.21 µM (inactive).

Q: And the GI50 [2]?
A: The GI50 was 17.2 µM (inactive).

Q: What about the GI50 [3] of the same molecule?
A: Its GI50 is 11.9 µM (inactive).

Q: And the GI50 [4]?
A: The GI50 was 7.33 µM (inactive).

Q: What about the GI50 [5] of the same molecule?
A: Its GI50 is 16.8 µM (inactive).

Q: What about the GI50 [6] of the same molecule?
A: The GI50 was 19.7 µM (inactive).

Q: And the GI50 [7]?
A: Its GI50 is 8.81 µM (inactive).

Q: And the GI50 [8]?
A: The GI50 was 21.4 µM (inactive).

Q: What about the GI50 [9] of the same molecule?
A: Its GI50 is 18.7 µM (inactive).

Q: And the GI50 [10]?
A: The GI50 was 18.7 µM (inactive).

Q: And the GI50 [11]?
A: The GI50 was 24.5 µM (inactive).

Q: What about the GI50 [12] of the same molecule?
A: The GI50 was 18.7 µM (inactive).

Q: What about the GI50 [13] of the same molecule?
A: The GI50 was 16.1 µM (inactive).

Q: And the GI50 [14]?
A: The GI50 was 8.89 µM (inactive).

Q: And the GI50 [15]?
A: The GI50 was 5.21 µM (inactive).

Q: What about the GI50 [16] of the same molecule?
A: Its GI50 is 25.1 µM (inactive).

Q: And the GI50 [17]?
A: Its GI50 is > 42.2 µM (inactive).

Q: What about the GI50 [18] of the same molecule?
A: Its GI50 is 9.1 µM (inactive).

Q: What about the GI50 [19] of the same molecule?
A: The GI50 was 8.93 µM (inactive).

Q: And the GI50 [20]?
A: Its GI50 is 12.9 µM (inactive).

Q: What about the GI50 [21] of the same molecule?
A: Its GI50 is 2.76 µM (inactive).

Q: And the GI50 [22]?
A: The GI50 was 5.85 µM (inactive).

Q: And the GI50 [23]?
A: The GI50 was 18.7 µM (inactive).

Q: What about the GI50 [24] of the same molecule?
A: The GI50 was 2.34 µM (inactive).

Q: And the GI50 [25]?
A: The GI50 was 23.8 µM (inactive).

Q: And the GI50 [26]?
A: The GI50 was 3.12 µM (inactive).

Q: And the GI50 [27]?
A: The GI50 was 6.32 µM (inactive).

Q: What about the GI50 [28] of the same molecule?
A: Its GI50 is 5.08 µM (inactive).

Q: What about the GI50 [29] of the same molecule?
A: Its GI50 is 13.5 µM (inactive).

Q: And the GI50 [30]?
A: The GI50 was 9.86 µM (inactive).

Q: And the GI50 [31]?
A: Its GI50 is 3.36 µM (inactive).

Q: And the GI50 [32]?
A: Its GI50 is 23.7 µM (inactive).

Q: What about the GI50 [33] of the same molecule?
A: Its GI50 is 21.1 µM (inactive).

Q: And the GI50 [34]?
A: Its GI50 is 13.3 µM (inactive).

Q: And the GI50 [35]?
A: Its GI50 is 14.9 µM (inactive).

Q: What about the GI50 [36] of the same molecule?
A: The GI50 was 9.31 µM (inactive).

Q: What about the GI50 [37] of the same molecule?
A: The GI50 was 5.47 µM (inactive).

Q: What about the GI50 [38] of the same molecule?
A: Its GI50 is 19.4 µM (inactive).

Q: What about the GI50 [39] of the same molecule?
A: Its GI50 is 11.9 µM (inactive).

Q: And the GI50 [40]?
A: The GI50 was 20.7 µM (inactive).

Q: What about the GI50 [41] of the same molecule?
A: The GI50 was 5.69 µM (inactive).

Q: What about the GI50 [42] of the same molecule?
A: Its GI50 is 9.64 µM (inactive).

Q: And the GI50 [43]?
A: The GI50 was 17.1 µM (inactive).

Q: What about the GI50 [44] of the same molecule?
A: The GI50 was 17.5 µM (inactive).

Q: What about the GI50 [45] of the same molecule?
A: Its GI50 is 6.32 µM (inactive).

Q: What about the GI50 [46] of the same molecule?
A: Its GI50 is 9.29 µM (inactive).

Q: What about the GI50 [47] of the same molecule?
A: The GI50 was 33 µM (inactive).

Q: What about the GI50 [48] of the same molecule?
A: Its GI50 is 52.8 µM (inactive).

Q: What about the GI50 [49] of the same molecule?
A: The GI50 was 11.5 µM (inactive).

Q: And the GI50 [50]?
A: The GI50 was 14.8 µM (inactive).

Q: What about the GI50 [51] of the same molecule?
A: Its GI50 is 7.46 µM (inactive).

Q: What about the GI50 [52] of the same molecule?
A: Its GI50 is 14 µM (inactive).

Q: What about the GI50 [53] of the same molecule?
A: Its GI50 is 3.61 µM (inactive).

Q: What about the GI50 [54] of the same molecule?
A: Its GI50 is 2.52 µM (inactive).

Q: What about the GI50 [55] of the same molecule?
A: Its GI50 is 14.6 µM (inactive).

Q: What about the GI50 [56] of the same molecule?
A: The GI50 was 7.83 µM.

Q: What about the GI50 [57] of the same molecule?
A: Its GI50 is 6.03 µM (inactive).

Q: What about the GI50 [58] of the same molecule?
A: Its GI50 is 9.06 µM (inactive).
